Reference: PubChem BioAssay (NCI)
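Grown in 96-well plates, cells were treated for 48 hours with each compound at five concentrations. Insufficient inhibition: endpoint recorded as highest concentration tested. TGI is the concentration that stops growth completely.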

Legend:
Assay in all cases: NCI tumour cell line growth inhibition, 48 h
ACHN renal = system: ACHN renal
U251 CNS = system: U251 CNS
SK-MEL-5 melanoma = system: SK-MEL-5 melanoma
MDA-MB-231 breast = system: MDA-MB-231 breast
786-0 renal = system: 786-0 renal
MCF7 breast = system: MCF7 breast
EKVX NSCLC = system: EKVX NSCLC
HOP-62 NSCLC = system: HOP-62 NSCLC
MDA-MB-435 = system: MDA-MB-435
SK-OV-3 ovarian = system: SK-OV-3 ovarian
DU-145 prostate = system: DU-145 prostate
SF-295 CNS = system: SF-295 CNS
OVCAR-4 ovarian = system: OVCAR-4 ovarian
HT29 colon = system: HT29 colon
NCI-H460 lung = system: NCI-H460 lung
NCI-H522 lung = system: NCI-H522 lung
MDA-N = system: MDA-N
M14 melanoma = system: M14 melanoma
IGROV1 ovarian = system: IGROV1 ovarian
A549 NSCLC = system: A549 NSCLC
UACC-62 melanoma = system: UACC-62 melanoma
HS 578T breast = system: HS 578T breast
SNB-75 CNS = system: SNB-75 CNS
HL-60(TB) leukemia = system: HL-60(TB) leukemia
RPMI-8226 leukemia = system: RPMI-8226 leukemia
SK-MEL-2 melanoma = system: SK-MEL-2 melanoma
CAKI-1 renal = system: CAKI-1 renal
HOP-92 NSCLC = system: HOP-92 NSCLC
OVCAR-3 ovarian = system: OVCAR-3 ovarian
KM12 colon = system: KM12 colon
NCI-H226 lung = system: NCI-H226 lung
A498 renal = system: A498 renal
SK-MEL-28 melanoma = system: SK-MEL-28 melanoma
OVCAR-8 ovarian = system: OVCAR-8 ovarian
T-47D breast = system: T-47D breast
COLO 205 colon = system: COLO 205 colon
HCT-116 colon = system: HCT-116 colon
HCT-15 colon = system: HCT-15 colon
MOLT-4 leukemia = system: MOLT-4 leukemia
RXF 393 renal = system: RXF 393 renal
UACC-257 melanoma = system: UACC-257 melanoma
MALME-3M melanoma = system: MALME-3M melanoma
SR leukemia = system: SR leukemia
NCI/ADR-RES ovarian = system: NCI/ADR-RES ovarian
SW-620 colon = system: SW-620 colon
LOX IMVI melanoma = system: LOX IMVI melanoma
TK-10 renal = system: TK-10 renal
BT-549 breast = system: BT-549 breast
SN12C renal = system: SN12C renal
OVCAR-5 ovarian = system: OVCAR-5 ovarian
UO-31 renal = system: UO-31 renal
SNB-19 CNS = system: SNB-19 CNS
SF-268 CNS = system: SF-268 CNS
NCI-H23 lung = system: NCI-H23 lung
K-562 leukemia = system: K-562 leukemia
HCC-2998 colon = system: HCC-2998 colon
PC-3 prostate = system: PC-3 prostate
LXFL 529 NSCLC = system: LXFL 529 NSCLC
SF-539 CNS = system: SF-539 CNS
DLD-1 colon = system: DLD-1 colon
M19-MEL melanoma = system: M19-MEL melanoma
SNB-78 CNS = system: SNB-78 CNS
CCRF-CEM leukemia = system: CCRF-CEM leukemia
HOP-18 NSCLC = system: HOP-18 NSCLC
DMS 273 small cell lung = system: DMS 273 small cell lung
KM20L2 colon = system: KM20L2 colon

In the case of C#CCSC(C=C=C)P(=O)(OC(C)C)OC(C)C (stereo not given), the TGI (ACHN renal) was > 100 µM, the TGI (U251 CNS) was > 100 µM and the TGI (SK-MEL-5 melanoma) was > 100 µM. The TGI (MDA-MB-231 breast) was > 100 µM, the TGI (786-0 renal) was > 100 µM and the TGI (MCF7 breast) was > 100 µM. For the same compound, the TGI (EKVX NSCLC) was > 100 µM, the TGI (HOP-62 NSCLC) was > 100 µM and the TGI (MDA-MB-435) was > 100 µM. For the same compound, the TGI (SK-OV-3 ovarian) was > 100 µM, the TGI (DU-145 prostate) was > 100 µM and the TGI (SF-295 CNS) was > 100 µM. The TGI (OVCAR-4 ovarian) was > 100 µM, the TGI (HT29 colon) was 94.5 µM and the TGI (NCI-H460 lung) was > 100 µM. The TGI (NCI-H522 lung) was 83.6 µM, the TGI (MDA-N) was > 100 µM and the TGI (M14 melanoma) was > 100 µM. For the same compound, the TGI (IGROV1 ovarian) was > 100 µM, the TGI (A549 NSCLC) was > 100 µM and the TGI (UACC-62 melanoma) was > 100 µM. For the same compound, the TGI (HS 578T breast) was 44.1 µM, the TGI (SNB-75 CNS) was > 100 µM and the TGI (HL-60(TB) leukemia) was > 100 µM. For the same compound, the TGI (RPMI-8226 leukemia) was > 100 µM, the TGI (SK-MEL-2 melanoma) was > 100 µM and the TGI (CAKI-1 renal) was > 100 µM. The TGI (HOP-92 NSCLC) was > 100 µM, the TGI (OVCAR-3 ovarian) was > 100 µM and the TGI (KM12 colon) was > 100 µM. For the same compound, the TGI (NCI-H226 lung) was > 100 µM, the TGI (A498 renal) was > 100 µM and the TGI (SK-MEL-28 melanoma) was > 100 µM. The TGI (OVCAR-8 ovarian) was > 100 µM, the TGI (T-47D breast) was > 100 µM and the TGI (COLO 205 colon) was > 100 µM. The TGI (HCT-116 colon) was 62.8 µM, the TGI (HCT-15 colon) was > 100 µM and the TGI (MOLT-4 leukemia) was 65.2 µM. The TGI (RXF 393 renal) was > 100 µM, the TGI (UACC-257 melanoma) was > 100 µM and the TGI (MALME-3M melanoma) was > 100 µM. For the same compound, the TGI (SR leukemia) was > 100 µM, the TGI (NCI/ADR-RES ovarian) was > 100 µM and the TGI (SW-620 colon) was > 100 µM. The TGI (LOX IMVI melanoma) was > 100 µM, the TGI (TK-10 renal) was > 100 µM and the TGI (BT-549 breast) was 82.8 µM. The TGI (SN12C renal) was 88.3 µM, the TGI (OVCAR-5 ovarian) was > 100 µM and the TGI (UO-31 renal) was > 100 µM. For the same compound, the TGI (SNB-19 CNS) was > 100 µM, the TGI (SF-268 CNS) was > 100 µM and the TGI (NCI-H23 lung) was > 100 µM. The TGI (K-562 leukemia) was 68.4 µM, the TGI (HCC-2998 colon) was 75.1 µM and the TGI (PC-3 prostate) was > 100 µM.
For CC1(c2ccc[n+](Cc3ccccc3)c2)OCCO1, the TGI (ACHN renal) was > 100 µM, the TGI (U251 CNS) was > 100 µM and the TGI (LXFL 529 NSCLC) was > 100 µM. The TGI (SK-MEL-5 melanoma) was > 100 µM, the TGI (SF-539 CNS) was > 100 µM and the TGI (DLD-1 colon) was > 100 µM. For the same compound, the TGI (786-0 renal) was > 100 µM, the TGI (EKVX NSCLC) was > 100 µM and the TGI (HOP-62 NSCLC) was > 100 µM. The TGI (SK-OV-3 ovarian) was > 100 µM, the TGI (SF-295 CNS) was > 100 µM and the TGI (OVCAR-4 ovarian) was > 100 µM. The TGI (HT29 colon) was > 100 µM, the TGI (NCI-H460 lung) was > 100 µM and the TGI (NCI-H522 lung) was > 100 µM. The TGI (M19-MEL melanoma) was > 100 µM, the TGI (M14 melanoma) was > 100 µM and the TGI (IGROV1 ovarian) was > 100 µM. The TGI (A549 NSCLC) was > 100 µM, the TGI (UACC-62 melanoma) was > 100 µM and the TGI (SNB-75 CNS) was > 100 µM. For the same compound, the TGI (HL-60(TB) leukemia) was > 100 µM, the TGI (RPMI-8226 leukemia) was > 100 µM and the TGI (SK-MEL-2 melanoma) was > 100 µM. The TGI (SNB-78 CNS) was > 100 µM, the TGI (CAKI-1 renal) was > 100 µM and the TGI (OVCAR-3 ovarian) was > 100 µM. For the same compound, the TGI (KM12 colon) was > 100 µM, the TGI (NCI-H226 lung) was > 100 µM and the TGI (A498 renal) was > 100 µM. The TGI (OVCAR-8 ovarian) was > 100 µM, the TGI (COLO 205 colon) was > 100 µM and the TGI (HCT-116 colon) was > 100 µM. The TGI (HCT-15 colon) was > 100 µM, the TGI (MOLT-4 leukemia) was > 100 µM and the TGI (RXF 393 renal) was > 100 µM. The TGI (CCRF-CEM leukemia) was > 100 µM, the TGI (HOP-18 NSCLC) was > 100 µM and the TGI (UACC-257 melanoma) was > 100 µM. The TGI (MALME-3M melanoma) was > 100 µM, the TGI (SR leukemia) was > 100 µM and the TGI (SW-620 colon) was > 100 µM. The TGI (LOX IMVI melanoma) was > 100 µM, the TGI (TK-10 renal) was > 100 µM and the TGI (DMS 273 small cell lung) was > 100 µM. For the same compound, the TGI (SN12C renal) was > 100 µM, the TGI (OVCAR-5 ovarian) was > 100 µM and the TGI (UO-31 renal) was > 100 µM. The TGI (KM20L2 colon) was > 100 µM, the TGI (SNB-19 CNS) was > 100 µM and the TGI (NCI-H23 lung) was > 100 µM. The TGI (K-562 leukemia) was > 100 µM and the TGI (HCC-2998 colon) was > 100 µM.
